What was measured:
Conditions in all cases: deblocked single compounds
[1] = tested on: Klebsiella pneumoniae; test: Antimicrobial assay (MIC), Klebsiella pneumoniae; assay type: cell-based
[2] = tested on: Staphylococcus aureus; test: Antimicrobial assay (MIC), Staphylococcus aureus; assay type: cell-based
Procedure: In this assay, the strain S. aureus ATCC 25923 (American Type Culture Collection) is used in the bioassay. To initiate the exponential phase of bacterial growth prior to the assay, a sample of bacteria is grown overnight at 37° C. in typtocase soy broth (BBL). This bacteria is then used to reinoculate sample wells of 96-well microtiter plates. The assays are carried out in the 96-well microtiter plates in 150 μL volume with approximately 1×10^6 cells per well.
(§1) Bacteria in typtocase soy broth (75 μL) is added to the compound mixtures in solution in 75 μL water/4% DMSO in the individual well of the microtiter plate. Final concentrations of the compound mixtures are 25 μM, 10 μM and 1 μM. Each concentration of the compound mixtures are assayed in triplicate. The plates are incubated at 37° C. and growth monitored over a 24 hour period by measuring the optical density at 595 nm using a BioRad model 3550 UV microplate reader. The percentage of growth relative to a well containing no compound is determined. Ampicillin and tetracycline antibiotic positive controls are concurrently tested in each screening assay.

[3] = tested on: Escherichia coli; test: Antimicrobial assay (MIC), Escherichia coli; assay type: cell-based
[4] = tested on: E. coli imp-; test: Antimicrobial assay (MIC), E. coli imp-; assay type: cell-based, Escherichia coli
Procedure: In this assay, the strain E. coli imp- obtained from Spenser Bensen (Sampson., B. A., Misra, R. & Benson, S. A. (1989), Genetics, 122, 491-501, Identification and characterization of a new gene of Escherichia coli K-12 involved in outer membrane permeability) is used. To initiate the exponential phase of bacterial growth prior to the assay, a sample of bacteria is grown overnight at 37° C. in Luria broth. This bacteria is then used to reinoculate sample wells of 96-well microtiter plates. The assays are carried out in the 96-well microtiter plates in 150 μL volume with approximately 1×10^6 cells per well.
as §1, with “Luria” for “typtocase soy”, “water” for “water/4% DMSO”, “Ampicillin and tetracycline antibiotic positive controls are concurrently tested in each screening assay.” left out
Libraries in accordance with the present invention have been tested for antibacterial activity utilizing assays that determine the minimum inhibitory concentration (MIC). […] Activity has been detected in a number of libraries of the present invention.

[5] = tested on: Entercoccus hirae; test: Antimicrobial assay (MIC), Entercoccus hirae; assay type: cell-based
[6] = tested on: Streptococcus pyogenes; test: Antimicrobial assay (MIC), Streptococcus pyogenes; assay type: cell-based

6-[(2-Aminobenzothiazole acetyl)piperazinyl]-2-[(m-chlorobenzyl)-piperazinyl]-N9-[(N′-t-Boc-N″-acetyl)piperazinyl]purine [Compound 46]
minimum inhibitory activity, Klebsiella pneumoniae [1]: 3 to 6 µM
minimum inhibitory activity, Staphylococcus aureus [2]: 3 to 6 µM
minimum inhibitory activity, Escherichia coli [3]: 50 to 100 µM
minimum inhibitory activity, E. coli. imp- [4]: 3 to 6 µM
minimum inhibitory activity, Entercoccus hirae [5]: 3 to 6 µM
minimum inhibitory activity, Streptococcus pyogenes [6]: 3 to 6 µM

6-[(2-aminobenzothiazole acetyl)piperazinyl]-2-[(N-m-triflouromethylbenzyl)piper-azinyl]-N9-[(N′-t-Boc-N″-acetyl)piperazinyl]purine [Compound 50]
minimum inhibitory activity, Klebsiella pneumoniae [1]: 3 to 6 µM
minimum inhibitory activity, Staphylococcus aureus [2]: 3 to 6 µM
minimum inhibitory activity, Escherichia coli [3]: >100 µM
minimum inhibitory activity, E. coli. imp- [4]: 3 µM
minimum inhibitory activity, Entercoccus hirae [5]: 3 µM
minimum inhibitory activity, Streptococcus pyogenes [6]: 3 to 6 µM

Source: patent publication US6991902B2, “Nucleobase heterocyclic combinatorialization” (ISIS Pharmaceuticals, Inc., priority 1997, dated 2006)
